Measured values as given in patent publication US8063221B2, “Aminoquinolones as GSK-3 inhibitors” (Kyorin Pharmaceutical Co., Ltd., priority 2006, dated 2011).
In brackets after ≈: the same amount, converted by molar mass. Where two headings read alike, the source gives them in different places.

Legend:
[1] = molecular target: T1, recombinant full-length human GSK3β (Homo sapiens, UniProt P49841); assay: Luciferase-coupled cell-free GSK3β kinase assay; format: biochemical
T1 construct: recombinant full-length human GSK3β (Upstate); purchased Upstate
T1 sequence (P49841 whole entry): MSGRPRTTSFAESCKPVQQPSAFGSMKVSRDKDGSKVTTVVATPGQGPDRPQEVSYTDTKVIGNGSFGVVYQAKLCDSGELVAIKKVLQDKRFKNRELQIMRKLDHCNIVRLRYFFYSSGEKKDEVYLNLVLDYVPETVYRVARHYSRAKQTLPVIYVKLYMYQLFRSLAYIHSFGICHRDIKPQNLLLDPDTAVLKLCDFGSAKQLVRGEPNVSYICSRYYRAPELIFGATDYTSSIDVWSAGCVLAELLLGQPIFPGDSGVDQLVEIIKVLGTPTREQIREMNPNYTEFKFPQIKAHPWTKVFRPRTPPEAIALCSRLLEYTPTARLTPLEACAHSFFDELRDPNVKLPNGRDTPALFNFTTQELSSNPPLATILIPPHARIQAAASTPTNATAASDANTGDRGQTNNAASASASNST
Procedure: For compounds in Tables 1 and 2, IC50 (μM) for GSK3β enzyme in cell free assay is provided as follows:
Luciferase-Coupled Protein Kinase Assays
All coupled-luciferase assays are performed by using a brief incubation with firefly luciferase (Promega) after completion of the kinase assay. KinaseGlo Plus is used for reading kinase reactions with ATP>10 μM, KinaseGlo for ATP <10 μM. The assay volume in a 384-well plate for the kinase reaction is 30 microliters.
10-25 ng of recombinant full-length human GSK3β (Upstate) is incubated in the presence or absence of compound at varying concentrations for 1 hour at 30 degrees Celsius in 20 mM MOPS, pH 7.0, 10 mM magnesium acetate, 0.2 mM EDTA, 2 mM EGTA, 30 mM magnesium chloride, 62.5 μM phospho-glycogen synthase peptide-2, 5 μM ATP, 10 mM β-glycerol phosphate, 1 mM sodium orthovanadate and 1 mM dithiothreitol. Proceed to KinaseGlo luciferase reaction (see below).
Following the completion of the kinase reaction an equal volume of KinaseGlo or KinaseGlo Plus luciferase reagent (Promega) is added and the luminescence read using a luminescence plate reader within 5-10 minutes. Compound activity is expressed as % inhibition relative to maximal inhibition observed at the maximal dose and IC50 values then calculated using curve fitting software (GraphPad Prizm).

[2] = tested on: E. coli, ATCC8739; assay: Antibacterial activity (MIC), E. coli; format: cell-based; settings: Escherichia coli
Source text: (§1) As used herein, a minimum inhibitory concentration (MIC) for bacterial growth assay is the lowest level of a compound needed to cause an inhibition to bacterial growth in culture medium. In certain embodiments, the antibacterial activity of compounds herein, measured as MIC.
(§2) In certain embodiments, GSK3 inhibitors provided herein are substantially free of antibacterial activity or having very low antibacterial activity. The antibacterial activity can be measured by methods known in the art by estimating a minimum inhibitory concentration (MIC) for test compounds. A MIC is the lowest level of a compound needed to cause an inhibition to bacterial growth in a culture medium. […] (Clinical and Laboratory Standards Institute. Methods for Dilution Antimicrobial Susceptibility Tests for Bacteria That Grow Aerobically; Approved Standard-Sixth Edition: CLSI document […]. CLSI, Wayne, Pa. (2003))
(§3) Antibacterial activity for E. coli, ATCC8739 andS. aureus Smith expressed as MIC (μM) is provided as follows: […]

[3] = tested on: S. aureus Smith; assay: Antibacterial activity (MIC), S. aureus; format: cell-based; settings: Staphylococcus aureus
Source text: as §1, §2, §3

[4] = ATCC8739, Table 1, E. coli ATCC8739, read-out: Antibacterial MIC (μM) E.Coli
[5] = Table 1, read-out: Antibacterial MIC (μM) S. aureus Smith
[6] = ATCC8739, Table 2, E. coli ATCC8739, read-out: Antimicrobial MIC [μM] E. Coli
[7] = Table 2, S. aureus Smith, read-out: Antimicrobial MIC [μM] S. aureus

| IC50 ([1]; Table 1) [nM] | MIC [2, 4] [µM] | MIC [3, 5] [µM] | IC50 ([1]; Table 2) [nM] | MIC [2, 6] [µM] | MIC [3, 7] [µM] | SMILES | further results |
| --- | --- | --- | --- | --- | --- | --- | --- |
| 100 to 500 | 0.5 to 10 (≈ 0.2 to 3.99 µg/mL) | < 0.5 | – | – | – | Nc1c(F)c(NCCc2ccccc2)c(F)c2c1c(=O)c(C(=O)O)cn2C1CC1 [compound 1] | – |
| – | – | – | 100 to 500 | > 50 | > 50 | COc1c(NCCCn2ccnc2)c(F)c(N)c2c(=O)ccn(C3CC3)c12 [compound 2] | – |
| – | – | – | 100 to 500 | 0.5 to 10 (≈ 0.199 to 3.98 µg/mL) | 0.5 to 10 (≈ 0.199 to 3.98 µg/mL) | CC1COc2c(NCCc3ccncc3)c(F)c(N)c3c(=O)c(C(=O)O)cn1c23 (stereo not drawn) [compound 3] | – |
| 100 to 500 | 0.5 to 10 (≈ 0.2 to 4 µg/mL) | < 0.5 | – | – | – | Nc1c(F)c(NCCc2ccncc2)c(F)c2c1c(=O)c(C(=O)O)cn2C1CC1 [compound 3] | – |
| – | – | – | 100 to 500 | > 50 | 0.5 to 10 (≈ 0.197 to 3.93 µg/mL) | CC(C)OCCCNc1c(F)c(N)c2c(=O)c(C(=O)O)cn3c2c1OCC3C (stereo not drawn) [compound 4] | – |
| – | – | – | < 100 | > 50 | 0.5 to 10 (≈ 0.209 to 4.18 µg/mL) | CC1COc2c(NCCCN3CCCC3=O)c(F)c(N)c3c(=O)c(C(=O)O)cn1c23 (stereo not drawn) [compound 5] | – |
| 100 to 500 | 0.5 to 10 (≈ 0.209 to 4.17 µg/mL) | < 0.5 | – | – | – | Nc1c(F)c(NCCc2ccc(F)cc2)c(F)c2c1c(=O)c(C(=O)O)cn2C1CC1 [compound 5] | – |
| – | – | – | < 100 | 10 to 50 (≈ 4.51 to 22.6 µg/mL) | 0.5 to 10 (≈ 0.226 to 4.51 µg/mL) | CC1COc2c(NCCCn3cnc4ccccc43)c(F)c(N)c3c(=O)c(C(=O)O)cn1c23 (stereo not drawn) [compound 6] | – |
| < 100 | 10 to 50 (≈ 4.13 to 20.7 µg/mL) | 0.5 to 10 (≈ 0.207 to 4.13 µg/mL) | – | – | – | Nc1c(F)c(NCCCc2ccccc2)c(F)c2c1c(=O)c(C(=O)O)cn2C1CC1 [compound 6] | – |
| 100 to 500 | 0.5 to 10 (≈ 0.208 to 4.15 µg/mL) | 0.5 to 10 (≈ 0.208 to 4.15 µg/mL) | – | – | – | Nc1c(F)c(NCCNc2ccccn2)c(F)c2c1c(=O)c(C(=O)O)cn2C1CC1 [compound 7] | – |
| – | – | – | > 1000 | 10 to 50 (≈ 3.97 to 19.9 µg/mL) | 10 to 50 (≈ 3.97 to 19.9 µg/mL) | Nc1c(F)c(NCCCc2ccccc2)c2c3c1c(=O)c(C(=O)O)cn3CCO2 [compound 8] | – |
| – | – | – | 500 to 1000 | 10 to 50 (≈ 3.87 to 19.4 µg/mL) | > 50 | Nc1c(F)c(NCCCn2ccnc2)c2c3c1c(=O)c(C(=O)O)cn3CCO2 [compound 9] | – |
| 100 to 500 | > 50 | > 50 | – | – | – | Nc1c(F)c(NCCc2ccncc2)c(F)c2c1c(=O)ccn2C1CC1 [compound 11] | – |
| – | – | – | < 100 | 10 to 50 (≈ 4.81 to 24.1 µg/mL) | 0.5 to 10 (≈ 0.241 to 4.81 µg/mL) | CC1COc2c(NCCNc3cccc(C(F)(F)F)n3)c(F)c(N)c3c(=O)c(C(=O)O)cn1c23 (stereo not drawn) [compound 12] | – |
| 500 to 1000 | > 50 | 10 to 50 (≈ 3.7 to 18.5 µg/mL) | – | – | – | Nc1ccc(CCNc2c(F)c(N)c3c(=O)ccn(C4CC4)c3c2F)cc1 [compound 12] | – |
| – | – | – | < 100 | 10 to 50 (≈ 4.67 to 23.4 µg/mL) | 0.5 to 10 (≈ 0.234 to 4.67 µg/mL) | CC1COc2c(NCCNc3nc(F)c(F)cc3F)c(F)c(N)c3c(=O)c(C(=O)O)cn1c23 (stereo not drawn) [compound 13] | – |
| 100 to 500 | 10 to 50 (≈ 3.69 to 18.5 µg/mL) | 10 to 50 (≈ 3.69 to 18.5 µg/mL) | – | – | – | Nc1c(F)c(NCCCc2ccccc2)c(F)c2c1c(=O)ccn2C1CC1 [compound 13] | – |
| – | – | – | < 100 | 10 to 50 (≈ 4.31 to 21.6 µg/mL) | 0.5 to 10 (≈ 0.216 to 4.31 µg/mL) | CC1COc2c(NCCNc3cccc(F)n3)c(F)c(N)c3c(=O)c(C(=O)O)cn1c23 (stereo not drawn) [compound 14] | – |
| – | – | – | < 100 | 10 to 50 (≈ 4.11 to 20.6 µg/mL) | – | C[C@H]1COc2c(NCCCc3ccccc3)c(F)c(N)c3c(=O)c(C(=O)O)cn1c23 [compound 29] | – |
| – | – | – | 100 to 500 | – | – | CC(CCc1ccccc1Cl)Nc1c(F)c(N)c2c(=O)c(C(=O)O)cn3c2c1OC[C@@H]3C (stereo partly drawn) [compound 88] | – |
| < 100 | – | – | – | – | – | CC1COc2c(NCCCn3ccnc3)c(F)c(N)c3c(=O)c(C(=O)O)cn1c23 (stereo not drawn) [compound 89] | – |
| – | – | – | < 100 | – | – | COc1cccc(CCCNc2c(F)c(N)c3c(=O)c(C(=O)O)cn4c3c2OC[C@@H]4C)c1 [compound 89] | – |
| – | – | – | 500 to 1000 | – | – | CC1Cc2ccccc2N1C(=O)CCCNc1c(F)c(N)c2c(=O)c(C(=O)O)cn3c2c1OC[C@@H]3C (stereo partly drawn) [compound 90] | – |

| SMILES | IC50 ([1]; Table 1) [nM] | MIC [2, 4] [µM] | MIC [3, 5] [µM] | IC50 ([1]; Table 2) [nM] | MIC [2, 6] [µM] | MIC [3, 7] [µM] | further results |
| --- | --- | --- | --- | --- | --- | --- | --- |
| Nc1c(F)c(NCCc2ccc(F)cc2)c(F)c2c1c(=O)ccn2C1CC1 [compound 10] | 500 to 1000 | – | – | – | – | – | MIC ([2]; ATCC8739, read-out: Antibacterial MIC (μM) E.Coli): 10 to 50 µM (≈ 3.73 to 18.7 µg/mL); MIC ([3]; read-out: Antibacterial MIC (μM) S. aureus Smith): 10 to 50 µM (≈ 3.73 to 18.7 µg/mL) |
